Reference: ChEMBL document CHEMBL5518209, “Caltrop-like Small-Molecule Antidotes That Neutralize Unfractionated Heparin and Low-Molecular-Weight Heparin In Vivo” (J Med Chem, 2024)
Activity calls are given as the source filed them. No cut-off for these calls is given here.

Columns and labels:
[1] = Binding affinity to enoxaparin sodium in saline at pH 7.4 assessed as change in entropy by ITC analysis
Blood [2] = assay: Blood compatibility in human whole blood assessed as effect on clotting strength at 0 to 20 ug/ml measured upto 50 mins by thromboelastography; type: toxicity, tissue-based; details: dose 0-20 µg/ml
[3] = Binding affinity to nadroparin calcium in saline at pH 7.4 assessed as change in enthalpy by ITC analysis
Homo sapiens [4] = species on record: Homo sapiens; assay: Reversal of anticoagulation of unfractionated heparin in human whole blood assessed as restoration of normal coagulation rate at 5 to 20 ug/ml incubated for 5 mins by thromboelastography; type: tissue-based; details: dose 5-20 µg/ml
[5] = Toxicity in ICR mouse assessed as histopathological changes in spleen at 25 mg/kg, iv administered as single dose through tail vein and measured after 14 days by H and E staining based analysis; type: organism-based; details: in vivo, 336 h, time 14 day
Homo sapiens [6] = species on record: Homo sapiens; assay: Reversal of anticoagulation of unfractionated heparin in human whole blood assessed as restoration of normal clotting time at 5 to 20 ug/ml incubated for 5 mins by thromboelastography; type: tissue-based; details: dose 5-20 µg/ml
Homo sapiens [7] = species on record: Homo sapiens; assay: Reversal of anticoagulation of unfractionated heparin in human whole blood assessed as minimum effective dose incubated for 5 mins by thromboelastography; type: tissue-based
Homo sapiens [8] = species on record: Homo sapiens; assay: Reversal of anticoagulation of dalteparin sodium in human whole blood assessed as restoration of normal clotting time at 5 to 20 ug/ml incubated for 5 mins by thromboelastography; type: tissue-based; details: dose 5-20 µg/ml
Bos taurus = species on record: Bos taurus; assay: Neutralization of enoxaparin sodium in bovine plasma at 10 to 60 ug/ml by aPTT assay; type: cell-free; details: dose 10-60 µg/ml
[9] = Binding affinity to unfractionated heparin in saline at pH 7.4 assessed as binding constant by ITC analysis
[10] = Binding affinity to dalteparin sodium in saline at pH 7.4 assessed as increase in fluorescence by measuring inflection point by fluorescence titration method
[11] = Cytotoxicity against human MCF7 cells assessed as cell viability at 300 ug/ml incubated for 24 hrs by CCK-8 assay relative to control; type: toxicity, cell-based; details: at 300 µg/mL, read-out: Activity
Homo sapiens [12] = species on record: Homo sapiens; assay: Reversal of anticoagulation of enoxaparin sodium in human whole blood assessed as minimum effective dose incubated for 5 mins by thromboelastography; type: tissue-based
[13] = Binding affinity to dalteparin sodium in saline at pH 7.4 assessed as change in gibbs free energy by ITC analysis
Homo sapiens [14] = species on record: Homo sapiens; assay: Neutralization of unfractionated heparin in human poor platelet plasma at 10 to 50 ug/ml by aPTT assay relative to control; type: cell-free; details: dose 10-50 µg/ml
[15] = Acute toxicity in iv dosed ICR mouse assessed as maximum tolerated dose measured after 7 days; type: organism-based; details: in vivo, time 7 day
Erythrocyte = assay: Hemolytic activity in human red blood cells at 512 ug/ml; type: toxicity, cell-based; details: dose 512 µg/ml
Homo sapiens [16] = species on record: Homo sapiens; assay: Reversal of anticoagulation of enoxaparin sodium in human whole blood assessed as restoration of normal clotting strength at 2 to 20 ug/ml incubated for 5 mins by thromboelastography; type: tissue-based; details: dose 2-20 µg/ml
Homo sapiens [17] = species on record: Homo sapiens; assay: Reversal of anticoagulation of nadroparin calcium in human whole blood assessed as minimum effective dose incubated for 5 mins by thromboelastography; type: tissue-based
Mus musculus [18] = assay: In vivo antagonism of dalteparin sodium induced anticoagulation in ICR mouse assessed as blood loss at 0.4 mg/kg, iv administered via tail vein pretreated with heparin for 5 mins followed by compound addition and measured after 5 mins (reference value: 324.4 +/- 139.5 microL); type: functional
Blood [19] = assay: Ex vivo neutralization of enoxaparin sodium in Sprague-Dawley rat whole blood assessed as restoration of blood coagulation at 10 to 15 ug/ml incubated for 15 mins; type: functional, tissue-based; details: dose 10-15 µg/ml
[20] = Binding affinity to enoxaparin sodium in saline at pH 7.4 assessed as change in enthalpy by ITC analysis
Homo sapiens [21] = species on record: Homo sapiens; assay: Neutralization of dalteparin sodium in human poor platelet plasma at 10 to 50 ug/ml by aPTT assay relative to control; type: cell-free; details: dose 10-50 µg/ml
Mus musculus [22] = assay: In vivo antagonism of unfractionated heparin induced anticoagulation in ICR mouse assessed as blood loss at 0.4 mg/kg, iv administered via tail vein pretreated with heparin for 5 mins followed by compound addition and measured after 5 mins (reference value: 324.4 +/- 139.5 microL); type: functional
[23] = Binding affinity to unfractionated heparin in saline at pH 7.4 assessed as change in enthalpy by ITC analysis
Blood [24] = assay: Ex vivo neutralization of dalteparin sodium in Sprague-Dawley rat whole blood assessed as restoration of blood coagulation at 10 to 15 ug/ml incubated for 15 mins; type: functional, tissue-based; details: dose 10-15 µg/ml
Homo sapiens [25] = species on record: Homo sapiens; assay: Reversal of anticoagulation of dalteparin sodium in human whole blood assessed as restoration of normal clotting strength at 2 to 20 ug/ml incubated for 5 mins by thromboelastography; type: tissue-based; details: dose 2-20 µg/ml
Homo sapiens [26] = species on record: Homo sapiens; assay: Reversal of anticoagulation of […] in human whole blood assessed as restoration of normal clotting strength at 2 to 20 ug/ml incubated for 5 mins by thromboelastography; type: tissue-based; details: dose 2-20 µg/ml
Homo sapiens [27] = species on record: Homo sapiens; assay: Neutralization of enoxaparin sodium in human poor platelet plasma at 10 to 50 ug/ml by aPTT assay relative to control; type: cell-free; details: dose 10-50 µg/ml
[28] = Binding affinity to nadroparin calcium in saline at pH 7.4 assessed as binding constant by ITC analysis
Blood [29] = assay: Ex vivo neutralization of unfractionated heparin in Sprague-Dawley rat whole blood assessed as restoration of blood coagulation at 10 to 15 ug/ml incubated for 15 mins; type: functional, tissue-based; details: dose 10-15 µg/ml
Homo sapiens [30] = species on record: Homo sapiens; assay: Reversal of anticoagulation of enoxaparin sodium in human whole blood assessed as restoration of normal coagulation rate at 5 to 20 ug/ml incubated for 5 mins by thromboelastography; type: tissue-based; details: dose 5-20 µg/ml
Rattus norvegicus = assay: In vivo antagonism of enoxaparin sodium induced anticoagulation in Sprague-Dawley rat assessed as restoration of normal clotting strength at 1 mg/kg, iv administered via tail vein pretreated with enoxaparin sodium for 5 mins followed by compound addition and measured after 2.5 mins by thromboelastography; type: functional, organism-based
[31] = Binding affinity to enoxaparin sodium in saline at pH 7.4 assessed as increase in fluorescence by measuring inflection point by fluorescence titration method
[32] = Binding affinity to dalteparin sodium in saline at pH 7.4 assessed as binding constant by ITC analysis
[33] = Toxicity in ICR mouse assessed as effect on animal activity at 0.4 to 25 mg/kg, iv administered as single dose through tail vein and measured after 3 to 14 days; type: organism-based; details: in vivo, dose lower 0.4 mg/kg, time lower 3 day, dose upper 25 mg/kg, time upper 14 day

With `NCCOc1ccc(-c2cc[n+](Cc3ccc(C(c4ccc(C[n+]5ccc(-c6ccc(OCCN)c(OCCN)c6)cc5)cc4)(c4ccc(C[n+]5ccc(-c6ccc(OCCN)c(OCCN)c6)cc5)cc4)c4ccc(C[n+]5ccc(-c6ccc(OCCN)c(OCCN)c6)cc5)cc4)cc3)cc2)cc1OCCN.[Cl-].[Cl-].[Cl-].[Cl-]` the -TdeltaS [1] was -2.05 kcal/mol, the Activity (Blood [2]) was “Toxic” and the deltaH [3] was -6.53 kcal/mol. The Activity (Homo sapiens [4]) was “Active”, the Activity [5] was “Non-Toxic” and the Activity (Homo sapiens [6]) was “Active”. The MED (Homo sapiens [7]) was 4 µg/mL, the Activity (Homo sapiens [8]) was “Active” and the Activity (Bos taurus) was “Active”. It also gave a Ka [9] of 2.92e+07 M⁻¹, an IP [10] of 2.6 and a viability at 24 h, 300 ug/ml [11] greater than 80%. It also gave an MED (Homo sapiens [12]) of 4 µg/mL, a deltaG [13] of -10.5 kcal/mol and an Activity (Homo sapiens [14]) of 100%. The MTD at 168 h [15] was 25 mg/kg, the Activity (Erythrocyte) was “Non-Toxic” and the Activity (Homo sapiens [16]) was “Active”. The MED (Homo sapiens [17]) was 4 µg/mL, the Activity (Mus musculus [18]) was 26 µL and the Activity (Blood [19]) was “Active”. It also gave a deltaH [20] of -7.86 kcal/mol, an Activity (Homo sapiens [21]) of 99% and an Activity (Mus musculus [22]) of 26.1 µL. The deltaH [23] was -5.86 kcal/mol, the Activity (Blood [24]) was “Active” and the Activity (Homo sapiens [25]) was “Active”. The Activity (Homo sapiens [26]) was “Active”, the Activity (Homo sapiens [27]) was 97% and the Ka [28] was 1.87e+07 M⁻¹. For the same molecule, the Activity (Blood [29]) was “Active”, the Activity (Homo sapiens [30]) was “Active” and the Activity (Rattus norvegicus) was “Active”. The IP [31] was 2.2, the Ka [32] was 4.78e+07 M⁻¹ and the Activity [33] was “Non-Toxic”.
